# Where “and” joins values, the source holds several entries; their conditions need not be identical. Equal values may be shown once. Inconclusive results are not listed.
# Test system: CD8F1 mice, subcutaneous mammary adenocarcinoma, T/C%
# Assay: NCI In Vivo Anticancer Drug Screen. Data for tumor model Mammary Adenocarcinoma CD8F1 (subcutaneous) in CD8F1
# Conditions: higher = larger tumour
# Outline: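 Compound-treated versus vehicle-treated mice with transplantable tumors; survival or tumor size compared as T/C.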
smiles,measurement,setting,value
CSC1SCC2C(=O)N(C)C(C(C)C)C(=O)OCC(NC(=O)c3cnc4ccccc4n3)C(=O)NC(C)C(=O)N(C)C1C(=O)N(C)C(C(C)C)C(=O)OCC(NC(=O)c1cnc3ccccc3n1)C(=O)NC(C)C(=O)N2C (stereo not given),T/C,"endpoint: mean tumor weight, dose: 7.5 micrograms/kg/injection, schedule: Q07DX005 (ip), vehicle: saline",67 % of control
same,T/C,"endpoint: mean tumor weight, dose: 15.0 micrograms/kg/injection, schedule: Q07DX005 (ip), vehicle: saline",83 % of control
same,T/C,"endpoint: median tumor weight (est.), dose: 7.5 micrograms/kg/injection, schedule: Q07DX005 (ip), vehicle: saline",82 % of control
same,T/C,"endpoint: median tumor weight (est.), dose: 15.0 micrograms/kg/injection, schedule: Q07DX005 (ip), vehicle: saline",67 % of control
same,T/C,"endpoint: median tumor weight (est.), dose: 30.0 micrograms/kg/injection, schedule: Q07DX005 (ip), vehicle: saline",97 % of control
same,T/C,"endpoint: median tumor weight (est.), dose: 60.0 micrograms/kg/injection, schedule: Q07DX005 (ip), vehicle: saline",117 % of control
same,T/C,"endpoint: median tumor weight (est.), dose: 120.0 micrograms/kg/injection, schedule: Q07DX005 (ip), vehicle: saline",76 % of control
C=C(C)C(=O)OC1C/C(CO)=C\C(O)C/C(C)=C/C2OC(=O)C(=C)C21 (stereo not given),T/C,"endpoint: median tumor weight change, dose: 12.0 mg/kg/injection, schedule: Q01DX001 (ip), vehicle: saline + alcohol",86 % of control
same,T/C,"endpoint: median tumor weight change, dose: 25.0 mg/kg/injection, schedule: Q01DX001 (ip), vehicle: saline + alcohol",49 % of control
same,T/C,"endpoint: median tumor weight change, dose: 50.0 mg/kg/injection, schedule: Q01DX001 (ip), vehicle: saline + alcohol",69 % of control
same,T/C,"endpoint: median tumor weight change, dose: 100.0 mg/kg/injection, schedule: Q01DX001 (ip), vehicle: saline + alcohol",60 % of control
COc1ccc(C(=O)/C(Br)=C/C(=O)O)cc1,T/C,"endpoint: mean tumor weight, dose: 8.0 mg/kg/injection, schedule: Q07DX004 (ip), vehicle: saline",69 % of control
same,T/C,"endpoint: mean tumor weight, dose: 12.5 mg/kg/injection, schedule: Q01DX009 (ip), vehicle: saline",206 % of control and 122 % of control
same,T/C,"endpoint: mean tumor weight, dose: 16.0 mg/kg/injection, schedule: Q07DX004 (ip), vehicle: saline",171 % of control
same,T/C,"endpoint: mean tumor weight, dose: 25.0 mg/kg/injection, schedule: Q01DX009 (ip), vehicle: saline",241 % of control and 113 % of control
same,T/C,"endpoint: mean tumor weight, dose: 25.0 mg/kg/injection, schedule: Q07DX006 (ip), vehicle: saline",190 % of control
same,T/C,"endpoint: mean tumor weight, dose: 32.0 mg/kg/injection, schedule: Q07DX004 (ip), vehicle: saline",163 % of control
same,T/C,"endpoint: mean tumor weight, dose: 50.0 mg/kg/injection, schedule: Q01DX009 (ip), vehicle: saline",156 % of control and 209 % of control
same,T/C,"endpoint: mean tumor weight, dose: 50.0 mg/kg/injection, schedule: Q07DX006 (ip), vehicle: saline",86 % of control
same,T/C,"endpoint: mean tumor weight, dose: 64.0 mg/kg/injection, schedule: Q07DX004 (ip), vehicle: saline",89 % of control
same,T/C,"endpoint: median tumor weight (est.), dose: 4.0 mg/kg/injection, schedule: Q01DX005 (ip), vehicle: saline",159 % of control
same,T/C,"endpoint: median tumor weight (est.), dose: 8.0 mg/kg/injection, schedule: Q04DX005 (ip), vehicle: saline",114 % of control
same,T/C,"endpoint: median tumor weight (est.), dose: 8.0 mg/kg/injection, schedule: Q07DX005 (ip), vehicle: saline",120 % of control
same,T/C,"endpoint: median tumor weight (est.), dose: 16.0 mg/kg/injection, schedule: Q01DX005 (ip), vehicle: saline",100 % of control
same,T/C,"endpoint: median tumor weight (est.), dose: 16.0 mg/kg/injection, schedule: Q07DX005 (ip), vehicle: saline",120 % of control
same,T/C,"endpoint: median tumor weight (est.), dose: 32.0 mg/kg/injection, schedule: Q01DX005 (ip), vehicle: saline",116 % of control
same,T/C,"endpoint: median tumor weight (est.), dose: 32.0 mg/kg/injection, schedule: Q07DX005 (ip), vehicle: saline",50 % of control
same,T/C,"endpoint: median tumor weight (est.), dose: 64.0 mg/kg/injection, schedule: Q01DX005 (ip), vehicle: saline",56 % of control
same,T/C,"endpoint: median tumor weight (est.), dose: 64.0 mg/kg/injection, schedule: Q04DX005 (ip), vehicle: saline",219 % of control
same,T/C,"endpoint: median tumor weight (est.), dose: 64.0 mg/kg/injection, schedule: Q07DX005 (ip), vehicle: saline",105 % of control
O=Cc1ccc(C(Cl)(Cl)Cl)cc1,T/C,"endpoint: median tumor weight (est.), dose: 12.5 mg/kg/injection, schedule: Q07DX005 (ip), vehicle: saline with Tween-80",94 % of control
same,T/C,"endpoint: median tumor weight (est.), dose: 25.0 mg/kg/injection, schedule: Q07DX005 (ip), vehicle: saline with Tween-80",55 % of control
same,T/C,"endpoint: median tumor weight (est.), dose: 50.0 mg/kg/injection, schedule: Q07DX005 (ip), vehicle: saline with Tween-80",97 % of control
same,T/C,"endpoint: median tumor weight (est.), dose: 100.0 mg/kg/injection, schedule: Q07DX005 (ip), vehicle: saline with Tween-80",68 % of control
same,T/C,"endpoint: median tumor weight (est.), dose: 200.0 mg/kg/injection, schedule: Q07DX005 (ip), vehicle: saline with Tween-80",81 % of control

# Source: PubChem BioAssay AID220 (DTP/NCI, 2004)
